Source: the NIST ThermoML archive (doi:10.1021/acs.jced.8b00202)
Values joined by “and” are separate entries in the source; they are usually repeats but may differ in a detail not shown here. Equal values may be shown once.

Conditions: Frequency=8 MHz, Dual path-length method

CC(C)C [2-methylpropane]
Conditions	speed of sound
300 K, 50138 kPa, Liquid	1240.1 m/s
300 K, 60144 kPa, Liquid	1297.7 m/s
300 K, 70151 kPa, Liquid	1350.8 m/s
300 K, 80158 kPa, Liquid	1400.3 m/s
300 K, 90165 kPa, Liquid	1446.7 m/s
300 K, 100172 kPa, Liquid	1490.4 m/s
300.01 K, 2103.9 kPa, Liquid	831.02 m/s
319.99 K, 40132 kPa, Liquid	1106.5 m/s
319.99 K, 45135 kPa, Liquid	1140.9 m/s
320 K, 1103.3 kPa, Liquid	702.16 m/s
320 K, 1103.7 kPa, Liquid	702.18 m/s
320 K, 1105.9 kPa, Liquid	702.16 m/s
320 K, 2106.5 kPa, Liquid	719.58 m/s
320 K, 3107.1 kPa, Liquid	736.11 m/s
320 K, 5106.2 kPa, Liquid	766.91 m/s
320 K, 5106.5 kPa, Liquid	766.92 m/s
320 K, 5108.3 kPa, Liquid	766.9 m/s
320 K, 6108.3 kPa, Liquid	781.34 m/s
320 K, 7109 kPa, Liquid	795.23 m/s
320 K, 8109.8 kPa, Liquid	808.64 m/s
320 K, 9110.4 kPa, Liquid	821.6 m/s
320 K, 10109 kPa, Liquid	834.15 m/s
320 K, 10110 kPa, Liquid	834.16 m/s and 834.15 m/s
320 K, 15114 kPa, Liquid	891.73 m/s
320 K, 17616 kPa, Liquid	917.89 m/s
320 K, 20118 kPa, Liquid	942.65 m/s
320 K, 25121 kPa, Liquid	988.67 m/s
320 K, 30123 kPa, Liquid	1030.8 m/s
320 K, 30124 kPa, Liquid	1030.9 m/s
320 K, 35128 kPa, Liquid	1070 m/s
320 K, 50136 kPa, Liquid	1173.5 m/s
320 K, 50139 kPa, Liquid	1173.5 m/s
320 K, 60146 kPa, Liquid	1234 m/s
320 K, 70153 kPa, Liquid	1289.5 m/s
320 K, 80160 kPa, Liquid	1340.8 m/s
320 K, 90167 kPa, Liquid	1388.9 m/s
320 K, 100174 kPa, Liquid	1434 m/s
320.01 K, 12612 kPa, Liquid	863.87 m/s
340 K, 2104 kPa, Liquid	604.55 m/s
340 K, 2104.2 kPa, Liquid	604.63 m/s
340 K, 3104.8 kPa, Liquid	625.77 m/s
340 K, 4105.5 kPa, Liquid	645.52 m/s
340 K, 5106 kPa, Liquid	664.1 m/s
340 K, 5106.2 kPa, Liquid	664.04 m/s
340 K, 6106.7 kPa, Liquid	681.52 m/s
340 K, 7107.5 kPa, Liquid	698.12 m/s
340 K, 8108.3 kPa, Liquid	713.94 m/s
340 K, 9109.1 kPa, Liquid	729.07 m/s
340 K, 10109 kPa, Liquid	743.63 m/s
340 K, 10110 kPa, Liquid	743.59 m/s
340 K, 12612 kPa, Liquid	777.6 m/s
340 K, 15113 kPa, Liquid	808.91 m/s
340 K, 17616 kPa, Liquid	838.02 m/s
340 K, 20118 kPa, Liquid	865.3 m/s
340 K, 25121 kPa, Liquid	915.43 m/s
340 K, 30123 kPa, Liquid	960.88 m/s
340 K, 30125 kPa, Liquid	960.87 m/s
340 K, 35128 kPa, Liquid	1002.6 m/s
340 K, 40130 kPa, Liquid	1041.4 m/s
340 K, 40132 kPa, Liquid	1041.4 m/s
340 K, 45135 kPa, Liquid	1077.7 m/s
340 K, 50140 kPa, Liquid	1112 m/s
340 K, 60147 kPa, Liquid	1175.2 m/s
340 K, 70154 kPa, Liquid	1232.9 m/s
340 K, 80159 kPa, Liquid	1286 m/s
340 K, 90166 kPa, Liquid	1335.6 m/s
340 K, 100173 kPa, Liquid	1382.1 m/s
360 K, 2104.4 kPa, Liquid	480.04 m/s
360 K, 3105.2 kPa, Liquid	509.76 m/s
360 K, 4105.9 kPa, Liquid	536.09 m/s
360 K, 5104.5 kPa, Liquid	559.92 m/s
360 K, 5104.9 kPa, Liquid	559.91 m/s
360 K, 6107.2 kPa, Liquid	581.76 m/s
360 K, 7108 kPa, Liquid	602.06 m/s
360 K, 8109.7 kPa, Liquid	621.09 m/s
360 K, 9110.4 kPa, Liquid	639 m/s
360 K, 10108 kPa, Liquid	655.98 m/s
360 K, 10111 kPa, Liquid	655.99 m/s
360 K, 12613 kPa, Liquid	695.08 m/s
360 K, 15114 kPa, Liquid	730.38 m/s
360 K, 17616 kPa, Liquid	762.73 m/s
360 K, 20118 kPa, Liquid	792.71 m/s
360 K, 25121 kPa, Liquid	847.15 m/s
360 K, 30125 kPa, Liquid	895.9 m/s
360 K, 35128 kPa, Liquid	940.3 m/s
360 K, 40132 kPa, Liquid	981.26 m/s
360 K, 45135 kPa, Liquid	1019.4 m/s
360 K, 50136 kPa, Liquid	1055.2 m/s
360 K, 50137 kPa, Liquid	1055.2 m/s
360 K, 50138 kPa, Liquid	1055.2 m/s
360 K, 60146 kPa, Liquid	1121 m/s
360 K, 70152 kPa, Liquid	1180.7 m/s
360 K, 80159 kPa, Liquid	1235.6 m/s
360 K, 90166 kPa, Liquid	1286.5 m/s
360 K, 100173 kPa, Liquid	1334.2 m/s
380 K, 3104.5 kPa, Liquid	378.47 m/s
380 K, 3604.1 kPa, Liquid	399.56 m/s
380 K, 4105.2 kPa, Liquid	418.49 m/s
380 K, 5105.8 kPa, Liquid	451.63 m/s
380 K, 6106.5 kPa, Liquid	480.42 m/s
380 K, 7107.2 kPa, Liquid	506.13 m/s
380 K, 8107.8 kPa, Liquid	529.51 m/s
380 K, 8109.6 kPa, Liquid	529.52 m/s
380 K, 9107.5 kPa, Liquid	551.1 m/s
380 K, 9107.9 kPa, Liquid	551.06 m/s
380 K, 10108 kPa, Liquid	571.15 m/s
380 K, 10111 kPa, Liquid	571.16 m/s
380 K, 12610 kPa, Liquid	616.32 m/s
380 K, 15112 kPa, Liquid	656.14 m/s
380 K, 15114 kPa, Liquid	656.15 m/s
380 K, 17614 kPa, Liquid	692.04 m/s
380 K, 20115 kPa, Liquid	724.92 m/s
380 K, 20116 kPa, Liquid	724.9 m/s
380 K, 25120 kPa, Liquid	783.75 m/s
380 K, 25121 kPa, Liquid	783.75 m/s
380 K, 30123 kPa, Liquid	835.78 m/s
380 K, 35127 kPa, Liquid	882.76 m/s
380 K, 40130 kPa, Liquid	925.81 m/s
380 K, 45134 kPa, Liquid	965.68 m/s
380 K, 50137 kPa, Liquid	1003 m/s
380 K, 60144 kPa, Liquid	1071.2 m/s
380 K, 70152 kPa, Liquid	1132.8 m/s
380 K, 80160 kPa, Liquid	1189.2 m/s
380 K, 90167 kPa, Liquid	1241.4 m/s
380 K, 100174 kPa, Liquid	1290.2 m/s
380.01 K, 20115 kPa, Liquid	724.92 m/s
380.01 K, 50136 kPa, Liquid	1002.9 m/s
400 K, 4606.1 kPa, Liquid	309.14 m/s
400 K, 5106.4 kPa, Liquid	334.25 m/s
400 K, 6107.2 kPa, Liquid	375.6 m/s
400 K, 7108.1 kPa, Liquid	409.76 m/s
400 K, 8108.8 kPa, Liquid	439.33 m/s
400 K, 8109.3 kPa, Liquid	439.33 m/s
400 K, 9109.5 kPa, Liquid	465.69 m/s
400 K, 10110 kPa, Liquid	489.63 m/s
400 K, 10111 kPa, Liquid	489.63 m/s
400 K, 12612 kPa, Liquid	541.93 m/s
400 K, 15114 kPa, Liquid	586.71 m/s and 586.72 m/s
400 K, 17616 kPa, Liquid	626.34 m/s
400 K, 20117 kPa, Liquid	662.12 m/s
400 K, 25122 kPa, Liquid	725.35 m/s
400 K, 30126 kPa, Liquid	780.54 m/s
400 K, 35129 kPa, Liquid	829.95 m/s
400 K, 40132 kPa, Liquid	874.94 m/s
400 K, 45136 kPa, Liquid	916.42 m/s
400 K, 50139 kPa, Liquid	955.05 m/s
400 K, 60146 kPa, Liquid	1025.5 m/s
400 K, 70153 kPa, Liquid	1088.7 m/s
400 K, 80160 kPa, Liquid	1146.5 m/s
400 K, 90167 kPa, Liquid	1199.9 m/s
400 K, 100174 kPa, Liquid	1249.7 m/s
420 K, 6107.4 kPa, Gas	266.66 m/s
420 K, 7108.4 kPa, Gas	314.01 m/s
420 K, 8109.2 kPa, Gas	351.95 m/s
420 K, 9110 kPa, Gas	384.27 m/s
420 K, 10111 kPa, Gas	412.72 m/s
420 K, 12613 kPa, Gas	472.84 m/s
420 K, 15115 kPa, Gas	522.73 m/s
420 K, 17617 kPa, Gas	566.03 m/s
420 K, 20119 kPa, Gas	604.64 m/s
420 K, 25122 kPa, Gas	671.99 m/s
420 K, 30126 kPa, Gas	730.1 m/s
420 K, 35129 kPa, Gas	781.73 m/s
420 K, 40133 kPa, Gas	828.47 m/s
420 K, 45136 kPa, Gas	871.4 m/s
420 K, 50140 kPa, Gas	911.24 m/s
420 K, 60146 kPa, Gas	983.6 m/s
420 K, 70153 kPa, Gas	1048.4 m/s
420 K, 80160 kPa, Gas	1107.4 m/s
420 K, 90167 kPa, Gas	1161.8 m/s
420 K, 100174 kPa, Gas	1212.4 m/s
